From PMC6163344, “A Novel Cell Penetrating Peptide for the Differentiation of Human Neural Stem Cells” (Biomolecules, 2018)

Experiments:
ReNcell VM (RVM) cells [1] = assay: 24 h cytotoxicity, CCK-8 (WST-8) or PrestoBlue; type: cell-based, human; conditions: 24 h treatment
Protocol: Sterile peptide solutions for cytotoxicity testing were prepared from stock by diluting with deionized (DI) water and filtering through a 0.22 µm polytetrafluoroethylene (PTFE) membrane. Because of aggregations and decreased solubility in water at high concentrations, a standard curve was used to determine the concentrations of the filtered peptides. Briefly, 5 µL of sample or serial diluted peptide stocks with known concentrations prepared from weighed powder, were aliquoted into wells of a 96-well half area plate. Then, 45 µL of methanol was added to each well to fully solubilize all the peptides. Absorbance measurements at 554 nm (650 nm as reference) were taken on a Tecan infinite M200 Pro plate reader (Tecan Group, Männedorf, Switzerland). After the calculation of stock concentrations, peptides were further diluted with cell culture media for treatment.
There were 10,000 ReNcell VM cells (passages below 15) that were seeded in each well, with 100 µL of RVM cell culture media supplemented with the growth factors bFGF and EGF.
For the PepB series (Figure 1 and Table 1) testing, the RVM cells were incubated with peptides for 24 h. […] After incubation for 1 h, for WST-8, a Tecan infinite M200 Pro plate reader was utilized to acquire absorbance measurements at 450 nm (650 nm as reference) and normalized to the untreated controls.

[2] = test system: β-III tubulin expression in ReNcell VM; assay: RVM differentiation, quantitative immunocytochemistry for β-III tubulin; type: cell-based, human; conditions: 0.1 µM, N = 3
Protocol: (§1) The laminin solution was removed prior to cell seeding. 2 × 10^4 ReNcell VM between passages 8 and 10 were seeded in the 8-well chamber slides with 400 µL of proliferation media. The cells were grown to 70% confluency. Differentiation for RVM is initiated by growth factor withdrawal or in combination with RA or RA-PepB3. The media were replaced every 48–72 h for the duration of the differentiation. Compound treatment was only performed for one week, at which point all cells were commonly grown in growth factor withdrawal media.
(§2) Cells were fixed with 4% PFA at room temperature for 15 min. After rinsing with PBS, blocking and permeabilization were done simultaneously using 5% donkey serum and 0.3% Triton-X 100 in PBS for 30 min at room temperature. The cells were rinsed with PBS and primary antibodies were applied for 2 h at room temperature. The cells were rinsed again with PBS and secondary antibodies were applied for 1 h at room temperature. […] The cells positive for β-III tubulin and MAP2 were counted using ImageJ. […] The fluorescence channels were separated, background removed, and contrast enhanced. The number of DAPI positive cells were counted using an in-house coded nuclei counter. […] The channels were then re-merged and the cells positive for β-III tubulin and MAP2 were manually counted. […]

[3] = test system: MAP2 expression in ReNcell VM; assay: RVM differentiation, quantitative immunocytochemistry for MAP2; type: cell-based, human; conditions: 0.1 µM, compound treatment for the initial one week, four weeks of differentiation, N = 3
Protocol: as §1, §2

ReNcell VM (RVM) cells [4] = conditions: PrestoBlue, N = 3
[5] = parameters: method as in PMID 1898007; conditions: reported solubility limit in water; cited from earlier work
Description: Neurogenesis is an important biological process under intense investigation. Neurodegenerative diseases such as Alzheimer’s and Parkinson’s are devastating due to the fact that neurons cannot be replaced in the diseased areas of the brain [1]. […] To exert its effects ... || Retinoic acid is a potent morphogen used to differentiate stem cells towards the neural lineage.

[6] = test system: undifferentiated RVM cells cultured in Matrigel; conditions: microarray chip, read-out: viability IC50; cited from earlier work

SMILES: CC1=C(/C=C/C(C)=C/C=C/C(C)=C/C(=O)O)C(C)(C)CCC1 [RA, All-Trans-Retinoic Acid]
- fraction of RVM cells killed (ReNcell VM (RVM) cells [1]; 10 µM, PrestoBlue or Cell Counting Kit-8, N = 3): more than 50%
- concentration at which RVM cells started significantly dying (ReNcell VM (RVM) cells [1]; 0–10 µM tested, N = 3): 5 µM
- β-III tubulin expression, fold versus growth factor withdrawal control ([2]; compound treatment for the initial one week, four weeks of differentiation): 2 fold
- β-III tubulin expression, fold versus no growth factor control ([2]; one week of differentiation): 1.5 fold
- MAP2 expression, fold versus control [3]: 2.5 fold
- proliferation versus controls after 24 h (ReNcell VM (RVM) cells [4]; 5 and 10 µM RA): significantly less proliferation than the controls
- proliferation versus controls by day three (ReNcell VM (RVM) cells [4]; all tested concentrations of RA, medium refreshed every 48 h): significantly reduced rates of proliferation
- solubility in aqueous environments [5]: < 0.2 µM
- IC50 [6]: 740 nM
